Experimental data from patent EP4352072B1, “SYNTHESIS OF A NOVEL GLUCOSE-CONJUGATED METHOTREXATE AND ITS APPLICATION FOR THE TREATMENT AND PREVENTION OF NEOPLASMS” (Uniwersytet Medyczny Im. Piastów Slaskich We Wroclawiu, priority 2021, dated 2022).
Read-outs that look alike come from different tables or passages of the source.

What was measured:
MCF-7 (breast) = experiment: MTT cytotoxicity test, MCF-7; type: cell-based; settings: Homo sapiens, MCF7, incubation 72 hours, read-out: IC50 values (µM) for individual cell lines MCF-7 (breast)
Method: (§1) Cells were seeded in a 96-well plate at 5-10 x 10^3 cells per well. After 24 hours, the culture medium was decanted and 100 µL of fresh medium was added to the control wells, while the medium with test compounds dissolved in DMSO was added to the test wells. The plates were wrapped in foil and placed in an incubator. After 72 hours of incubation, the medium was decanted and 100 µL of a solution of yellow soluble 3-(4,5-dimethyl-2-thiazolyl)-2,5-diphenyl-2H-tetrazolium bromide (MTT) at a concentration of 0.5-1 mg/mL was added. After 4 hours of incubation, the MTT solution was decanted and 50 µL/well of DMSO was added. After 3 hours, the optical density of the dissolved formazan was analyzed colorimetrically in a BioTek plate reader. […] Since living cells reduce MTT to formazan, the optical density (OD) is highest in the control (C) wells which accounted for 100% of cell viability. Viablity in wells incubated with compound (COMP) was calculated using the formula: X = 100% × OD COMP/OD C [formula] The results reported are the mean value of triplicate cytotoxicity analysis. Cell viability studies using the MTT assay on cell lines of numerous cancers, including breast cancer, colorectal cancer, lung cancer, skin cancer, and bone sarcoma have shown that Glu-MTX is cytotoxic in vitro. […]

DLD-1 (large intestine) = experiment: MTT cytotoxicity test, DLD-1; type: cell-based; settings: Homo sapiens, incubation 72 hours, read-out: IC50 values (µM) for individual cell lines DLD-1 (large intestine)
Method: as §1

MG-63 (bone sarcoma) = experiment: MTT cytotoxicity test, MG-63; type: cell-based; settings: Homo sapiens, incubation 72 hours, read-out: IC50 values (µM) for individual cell lines MG-63 (bone sarcoma)
Method: as §1

[1] = test system: WI38 (healthy fibroblasts); experiment: MTT cytotoxicity test, WI38; type: cell-based; settings: Homo sapiens, WI-38, incubation 72 hours, read-out: IC50 values (µM) for individual cell lines WI38 (healthy fibroblasts)
Method: as §1

[2] = test system: MCF-7 breast cancer tumor cells; experiment: MS analysis of intracellular accumulation, MCF-7; type: cell-based; settings: human, 2 h, 10 µM
Method: (§2) Cells were seeded in a 6-well plate at 2.5 x 10^5 cells/well and 1 mL/well. When the cells reached 80% confluence, the culture medium was decanted and 1 mL per well of fresh medium to the control wells or 1 mL per well of the test medium with methotrexate at a concentration of 10 µM or a derivative of methotrexate at a concentration of 10 µM, respectively, was added. The plate was wrapped in foil and incubated for 2 hours in an incubator. After this time, the medium was decanted, and each well was washed with 2x1 mL of PBS at room temperature. Then, the plate was placed on ice and 500 µL of a 3:1 mixture of methanol and ultrapure water at -20 °C were applied to each well. The mixture was pipetted several times in each well and collected in a test tube. Then, the procedure was repeated and the prepared samples (each with a volume of 1 mL) were placed in a lowtemperature freezer at -80 °C. The next day, the samples were concentrated in a vacuum concentrator until the samples were completely dry. Prior to analysis, the solvent for MS analysis (Xevo G2 Q-TOF MS) was added to the sample. In figure 7 it can be seen that in case of MTX the surface area of MCF7 tumor cells grown with MTX is about 308 units, and when using a compound according to the invention (identified as 77_1 in Figure 7) it is 525, i.e. about 1.7 times less than in the case of a conjugate. […]

[3] = test system: A427 lung cancer tumor cells; experiment: MS analysis of intracellular accumulation, A427; type: cell-based; settings: 10 µM, 2 hours incubation
Method: as §2

[4] = male, BALB/ccmdb, mouse, in vivo, iv
Method: The pharmacokinetic profile of the glucose-methotrexate derivative according to the invention (GMTX; chemical formula: C42H58N16O15) was examined in relation to the profile of the classical form of this drug (MTX) after a single intravenous administration into the tail vein. The solutions administered to the animals were prepared on the day of administration.
GMTX was administered to mice intravenously via the tail vein, in a single dose, in the form of solutions (with concentrations ensuring that the animals are dosed appropriately) prepared in 5% DMSO and saline in the 1:20 ratio, in a volume not exceeding 0.2 cm^3/mouse. […]
Mice were administered intravenously (i.v.) GMTX and MTX and blood was collected (to obtain plasma) at 4 time points after injection (1 h, 2 h, 4 h and 8 h), as well as in the so-called time 0 (blood sampling from animals that received neither MTX nor GMTX). […] Another 16 males were administered GMTX at a dose of 400 mg/kg body weight, constituting ½ the MTD of this compound (determined in our study with the code T425/001/2020), and the remaining 8 subjects were not administered either classic MTX nor its glycoconjugate (GMTX). […]
The results of MTX and GMTX concentrations in the plasma of mice were statistically analyzed using the Statistica 13 computer program. The results were expressed as the mean concentration (± standard deviation - SD) at individual time points. […]

[5] = administered intravenously, cited from earlier work
[6] = cited from earlier work

Compound `CN(Cc1cnc2nc(N)nc(N)c2n1)c1ccc(C(=O)N[C@@H](CCC(=O)O)C(=O)O)cc1` [MTX, Methotrexate] has an IC50 (MCF-7 (breast)) of 9.61 ± 0.12 µM, an IC50 (DLD-1 (large intestine)) of 6.85 ± 0.21 µM and an IC50 (MG-63 (bone sarcoma)) of 61 ± 0.76 µM. For the same compound, the IC50 [1] was 16.9 ± 1.94 µM, the “surface area (MS analysis)” value [2] was “about 308 units” and the “surface area of MTX, times less than in the case of a conjugate” value [2] was “about 1.7 times”. The “surface area of MTX, times smaller compared to that of the conjugate” value [3] was 1.7 times, the “eliminated from the systemic circulation (time)” value [4] was ≤ 4 h and the MTD ([5]; mice of the BALB/c strain, Moura et al. 2011) was 94 mg/kg b.w. The LD50 ([5]; mice) was 65 mg/kg b.w, the bioavailability ([6]; in high doses) was 10-20% and the bioavailability ([6]; in low doses) was “almost complete”. For the same compound, the plasma half-life ([6]; in vivo) was 5 to 8 h.
